Test results reported in ChEMBL document CHEMBL2385072, “Development of oleanane-type triterpenes as a new class of HCV entry inhibitors” (J Med Chem, 2013).

Experiments:
Details in all cases: HEK-293T
Hepatitis C virus [1] = assay: Antiviral activity against pseudo HCV infected in human 293T cells assessed as inhibition of HCV pseudo particles entry at 5 uM after 72 hrs by luciferase reporter gene assay; type: functional, Hepacivirus hominis
Hepatitis C virus [2] = assay: Antiviral activity against pseudo HCV infected in human 293T cells assessed as inhibition of HCV pseudo particles entry at 1 uM after 72 hrs by luciferase reporter gene assay; type: functional, Hepacivirus hominis
[3] = test system: Vesicular stomatitis virus; assay: Antiviral activity against pseudo VSV infected in human 293T cells assessed as inhibition of vesicular stromatis G protein pseudo particles entry at 5 uM after 72 hrs by luciferase reporter gene assay; type: functional
[4] = test system: Vesicular stomatitis virus; assay: Antiviral activity against pseudo VSV infected in human 293T cells assessed as inhibition of vesicular stromatis G protein pseudo particles entry at 1 uM after 72 hrs by luciferase reporter gene assay; type: functional

| Compound | inhibition at 5 µM (Hepatitis C virus [1]) [%] | inhibition at 1 µM (Hepatitis C virus [2]) [%] | inhibition at 5 µM [3] [%] | inhibition at 1 µM [4] [%] |
| --- | --- | --- | --- | --- |
| CC(=O)OC[C@H]1O[C@@H](n2cc(CNC(=O)[C@]34CCC(C)(C)C[C@H]3C3=CC[C@@H]5[C@@]6(C)CC[C@H](O)C(C)(C)[C@@H]6CC[C@@]5(C)[C@]3(C)C[C@H]4O)nn2)[C@H](OC(C)=O)[C@@H](OC(C)=O)[C@@H]1O[C@H]1O[C@H](COC(C)=O)[C@@H](O[C@H]2O[C@H](COC(C)=O)[C@@H](OC(C)=O)[C@H](OC(C)=O)[C@H]2OC(C)=O)[C@H](OC(C)=O)[C@H]1OC(C)=O | 62.9 | 45.4 | 14 | 17.7 |
| CC1(C)CC[C@]2(C(=O)O[C@@H]3OC[C@@H](O)[C@H](O)[C@H]3O)[C@H](O)C[C@]3(C)C(=CC[C@@H]4[C@@]5(C)CC[C@H](O)C(C)(C)[C@@H]5CC[C@]43C)[C@@H]2C1 | 77.7 | 33.8 | 13 | 36.5 |
| CC1(C)CC[C@]2(C(=O)O)[C@H](OS(=O)(=O)O)C[C@]3(C)C(=CC[C@@H]4[C@@]5(C)CC[C@H](O)C(C)(C)[C@@H]5CC[C@]43C)[C@@H]2C1 | -2.7 | 1 | 34.7 | 38.5 |
| C[C@H]1O[C@@H](n2cc(CNC(=O)[C@]34CCC(C)(C)C[C@H]3C3=CC[C@@H]5[C@@]6(C)CC[C@H](O)C(C)(C)[C@@H]6CC[C@@]5(C)[C@]3(C)C[C@H]4O)nn2)[C@@H](O)[C@@H](O)[C@@H]1O | 67 | 32 | 13.9 | 7.7 |
| CC(=O)OC[C@H]1O[C@@H](n2cc(CNC(=O)[C@]34CCC(C)(C)C[C@H]3C3=CC[C@@H]5[C@@]6(C)CC[C@H](O)C(C)(C)[C@@H]6CC[C@@]5(C)[C@]3(C)C[C@H]4O)nn2)[C@H](OC(C)=O)[C@@H](OC(C)=O)[C@@H]1O[C@@H]1O[C@H](COC(C)=O)[C@@H](OC(C)=O)[C@H](OC(C)=O)[C@H]1OC(C)=O | 64.8 | 11.9 | 38.8 | 36.8 |
| CC1(C)CC[C@]2(C(=O)O)[C@H](OCc3ccccc3)C[C@]3(C)C(=CC[C@@H]4[C@@]5(C)CC[C@H](OCc6ccccc6)C(C)(C)[C@@H]5CC[C@]43C)[C@@H]2C1 | 28.2 | 5.5 | 30.6 | 28.8 |
| CC(=O)O[C@@H]1[C@H](OC(C)=O)[C@H](n2cc(CNC(=O)[C@]34CCC(C)(C)C[C@H]3C3=CC[C@@H]5[C@@]6(C)CC[C@H](O)C(C)(C)[C@@H]6CC[C@@]5(C)[C@]3(C)C[C@H]4O)nn2)OC[C@H]1OC(C)=O | 65.8 | 21.8 | 32.2 | 29.3 |
| CC1(C)CC[C@]2(C(=O)NCc3cn(CCNC(=O)CCCC[C@@H]4SC[C@@H]5NC(=O)N[C@@H]54)nn3)[C@H](O)C[C@]3(C)C(=CC[C@@H]4[C@@]5(C)CC[C@H](O)C(C)(C)[C@@H]5CC[C@]43C)[C@@H]2C1 | 76.7 | 34.2 | 12 | 10.3 |
| COC(=O)[C@]12CCC(C)(C)C[C@H]1C1=CC[C@@H]3[C@@]4(C)CC[C@H](OS(=O)(=O)c5ccc(C)cc5)C(C)(C)[C@@H]4CC[C@@]3(C)[C@]1(C)C[C@H]2O | 16.4 | 12.3 | 39.3 | 38.3 |
| COC(=O)[C@]12CCC(C)(C)C[C@H]1C1=CC[C@@H]3[C@@]4(C)CC[C@H](O[Si](C)(C)C(C)(C)C)C(C)(C)[C@@H]4CC[C@@]3(C)[C@]1(C)CC2=O | -3.8 | 11.5 | 40.2 | 45.3 |
| COC(=O)[C@]12CCC(C)(C)C[C@H]1C1=CC[C@@H]3[C@@]4(C)CC[C@H](OC)C(C)(C)[C@@H]4CC[C@@]3(C)[C@]1(C)C[C@H]2OC | 7.9 | 1.7 | 14.2 | 8.5 |
| CC(=O)OC[C@H]1O[C@@H](n2cc(CNC(=O)[C@]34CCC(C)(C)C[C@H]3C3=CC[C@@H]5[C@@]6(C)CC[C@H](O)C(C)(C)[C@@H]6CC[C@@]5(C)[C@]3(C)C[C@H]4O)nn2)[C@H](OC(C)=O)[C@@H](OC(C)=O)[C@H]1OC(C)=O | 66.5 | 20.4 | 30.6 | 24.3 |
| COC(=O)[C@@]12C=C[C@]3(C)C(=CC[C@@H]4[C@@]5(C)CC=CC(C)(C)[C@@H]5CC[C@]43C)[C@@H]1CC(C)(C)CC2 | 14 | 35.8 | 33.9 | 20.9 |
| CC1(C)CC[C@]2(C(=O)O[C@@H]3OC[C@@H](O)[C@@H](O)[C@@H]3O)[C@H](O)C[C@]3(C)C(=CC[C@@H]4[C@@]5(C)CC[C@H](O)C(C)(C)[C@@H]5CC[C@]43C)[C@@H]2C1 | 54.6 | 34.7 | 5.8 | 15.6 |
| CC1(C)CC[C@]2(C(=O)O)[C@H](O)C[C@]3(C)C(=CC[C@@H]4[C@@]5(C)CCC(N)C(C)(C)[C@@H]5CC[C@]43C)[C@@H]2C1 (stereo partly drawn) | 10.5 | 12.1 | 28.4 | 23.6 |
| CC1(C)CC[C@]2(C(=O)NCc3cn([C@@H]4O[C@H](CO)[C@@H](O[C@@H]5O[C@H](CO)[C@@H](O)[C@H](O)[C@H]5O)[C@H](O)[C@H]4O)nn3)[C@H](O)C[C@]3(C)C(=CC[C@@H]4[C@@]5(C)CC[C@H](O)C(C)(C)[C@@H]5CC[C@]43C)[C@@H]2C1 | 11.8 | 15.2 | 50.5 | 26.6 |
| CC(=O)OC[C@H]1O[C@@H](n2cc(CNC(=O)[C@]34CCC(C)(C)C[C@H]3C3=CC[C@@H]5[C@@]6(C)CC[C@H](O)C(C)(C)[C@@H]6CC[C@@]5(C)[C@]3(C)C[C@H]4O)nn2)[C@@H](OC(C)=O)[C@@H](OC(C)=O)[C@@H]1OC(C)=O | 81.5 | 21.8 | 14.7 | -5.3 |
| CC1(C)CC[C@]2(C(=O)NCc3cn([C@@H]4OC[C@@H](O)[C@H](O)[C@@H]4O)nn3)[C@H](O)C[C@]3(C)C(=CC[C@@H]4[C@@]5(C)CC[C@H](O)C(C)(C)[C@@H]5CC[C@]43C)[C@@H]2C1 | 43.2 | 20.3 | 35.2 | 7 |
| CC1(C)CC[C@]2(C(=O)NCCCNC(=O)[C@]34CCC(C)(C)C[C@H]3C3=CC[C@@H]5[C@@]6(C)CC[C@H](O)C(C)(C)[C@@H]6CC[C@@]5(C)[C@]3(C)C[C@H]4O)[C@H](O)C[C@]3(C)C(=CC[C@@H]4[C@@]5(C)CC[C@H](O)C(C)(C)[C@@H]5CC[C@]43C)[C@@H]2C1 | 58.2 | 44.6 | 27.6 | 18.7 |
| CC1(C)CC[C@]2(C(=O)NCc3cn([C@@H]4O[C@H](CO)[C@@H](O[C@H]5O[C@H](CO)[C@@H](O)[C@H](O)[C@H]5O)[C@H](O)[C@H]4O)nn3)[C@H](O)C[C@]3(C)C(=CC[C@@H]4[C@@]5(C)CC[C@H](O)C(C)(C)[C@@H]5CC[C@]43C)[C@@H]2C1 | 29.7 | 9.3 | 48.1 | 25.8 |
| COC(=O)[C@]12CCC(C)(C)C[C@H]1C1=CC[C@@H]3[C@@]4(C)CC=CC(C)(C)[C@@H]4CC[C@@]3(C)[C@]1(C)C[C@H]2O | -8.9 | -3.3 | 9.7 | 7.6 |
| CC(=O)OC[C@H]1O[C@H](O[C@H]2[C@H](OC(C)=O)[C@@H](OC(C)=O)[C@H](OC(=O)[C@]34CCC(C)(C)C[C@H]3C3=CC[C@@H]5[C@@]6(C)CC[C@H](O)C(C)(C)[C@@H]6CC[C@@]5(C)[C@]3(C)C[C@H]4O)O[C@@H]2COC(C)=O)[C@H](OC(C)=O)[C@@H](OC(C)=O)[C@@H]1OC(C)=O | 50 | 36.5 | 23.4 | 20.9 |
| CC(=O)O[C@@H]1[C@H](OC(C)=O)[C@H](n2cc(CNC(=O)[C@]34CCC(C)(C)C[C@H]3C3=CC[C@@H]5[C@@]6(C)CC[C@H](O)C(C)(C)[C@@H]6CC[C@@]5(C)[C@]3(C)C[C@H]4O)nn2)O[C@H](C)[C@H]1OC(C)=O | 71.6 | 17 | -10.7 | 32.6 |
| COC(=O)[C@]12CCC(C)(C)C[C@H]1C1=CC[C@@H]3[C@@]4(C)CC[C@H](O[Si](C)(C)C(C)(C)C)C(C)(C)[C@@H]4CC[C@@]3(C)[C@]1(C)C[C@H]2O | 27.8 | 44.3 | 37.4 | 27.4 |
| CC(=O)OC[C@H]1O[C@@H](O[C@H]2[C@H](OC(C)=O)[C@@H](OC(C)=O)[C@H](n3cc(CNC(=O)[C@]45CCC(C)(C)C[C@H]4C4=CC[C@@H]6[C@@]7(C)CC[C@H](O)C(C)(C)[C@@H]7CC[C@@]6(C)[C@]4(C)C[C@H]5O)nn3)O[C@@H]2COC(C)=O)[C@H](OC(C)=O)[C@@H](OC(C)=O)[C@H]1OC(C)=O | 71.8 | 24.6 | 32.1 | 39 |
| COC(=O)[C@]12CCC(C)(C)C[C@H]1C1=CC[C@@H]3[C@@]4(C)CC[C@H](OC)C(C)(C)[C@@H]4CC[C@@]3(C)[C@]1(C)C[C@H]2O | – | -14 | 30.1 | 9.9 |
